Laboratory results as given in article PMC2680961, “Homologous desensitization of signalling by the alpha (α) isoform of the human thromboxane A2 receptor: A specific role for nitric oxide signalling” (Biochimica et Biophysica Acta, 2007).

Columns and labels:
TPα^S331A = target: T1, TPα^S331A (Homo sapiens, UniProt P21731, S331A); assay: [3H]SQ29,548 radioligand binding, Scatchard analysis, HEK.TPα^S331A
T1 construct: expressed in transfected cells
T1 sequence (P21731 1-343 S331A): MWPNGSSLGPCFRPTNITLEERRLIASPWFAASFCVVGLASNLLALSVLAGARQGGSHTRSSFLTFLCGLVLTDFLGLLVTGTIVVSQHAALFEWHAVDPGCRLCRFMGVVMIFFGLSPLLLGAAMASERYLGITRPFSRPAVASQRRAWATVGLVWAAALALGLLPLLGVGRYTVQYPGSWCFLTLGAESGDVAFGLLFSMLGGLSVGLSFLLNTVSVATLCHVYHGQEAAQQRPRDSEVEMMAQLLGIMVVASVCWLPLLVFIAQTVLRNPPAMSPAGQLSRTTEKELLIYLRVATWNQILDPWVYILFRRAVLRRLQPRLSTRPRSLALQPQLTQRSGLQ
Experimental: (§1) Cells were harvested by centrifugation at 500×g at 4 °C for 5 min and washed three times with ice-cold Ca^2+/Mg^2+-free phosphate-buffered saline (PBS). TP radioligand binding assays were carried out at 30 °C for 30 min in 100 μl reactions in the presence of 0–40 nM [^3H] […] Protein determinations were carried out using the Bradford assay.
(§2) Radioligand binding and Scatchard analysis data were analysed using GraphPad Prisim V4.0 programme (GraphPad Software Inc., San Diego CA, USA). Statistical analyses were carried out using the unpaired Student's t test using the Statworks Analysis Package. p-values ≤ 0.01 indicated statistically significant differences.

TPβ^WT = target: T2, TPβ^WT (Homo sapiens, UniProt P21731); assay: [3H]SQ29,548 radioligand binding, Scatchard analysis, HEK.TPβ^WT
T2 construct: expressed in transfected cells
Experimental: as §1, §2

TPα^Δ336 = target: T3, TPα^Δ336 (Homo sapiens, UniProt P21731); assay: Intracellular calcium mobilization, HEK.TPα^Δ336 cells; assay type: cell-based; conditions: for Δ[Ca2+]i, U46619-induced: HEK.TPα^Δ336
T3 construct: expressed in transfected cells
T3 sequence (P21731 1-335): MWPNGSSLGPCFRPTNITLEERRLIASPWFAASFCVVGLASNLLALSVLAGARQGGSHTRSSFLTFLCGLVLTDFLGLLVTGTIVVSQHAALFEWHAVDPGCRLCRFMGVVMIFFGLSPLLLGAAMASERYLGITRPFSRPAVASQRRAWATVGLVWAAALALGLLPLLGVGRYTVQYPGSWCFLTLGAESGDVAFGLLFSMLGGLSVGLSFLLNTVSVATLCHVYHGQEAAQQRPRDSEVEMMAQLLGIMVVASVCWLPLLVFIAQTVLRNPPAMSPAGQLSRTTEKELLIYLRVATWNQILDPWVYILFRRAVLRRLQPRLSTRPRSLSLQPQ
Experimental: Measurement of intracellular calcium mobilization ([Ca^2+]i) in FURA2/AM preloaded HEK 293 cell lines (2 × 10^6 cells/dish), each transiently co-transfected with pADVA (10 μg), and pCMV:Gαq (25 μg), was carried out as previously described. To investigate the effect of GRK2/βARK1 on TP-mediated [Ca^2+]i mobilization, HEK.TPα or HEK.TPβ cells (2 × 10^6 cells/dish) were co-transfected with pADVA (10 μg), pCMV:Gαq (25 μg) along with pRK5:βARK1^495–689 (25 μg), encoding a dominant negative form of GRK2/βARK1[39]. Approximately 48 h post-transfection, cells were harvested by scraping, washed twice in ice-cold PBS and resuspended in HBSSHB (modified Ca^2+/Mg^2+-free Hank's buffered salt solution, containing […], pH 7.67, 0.1% bovine serum albumin (BSA)) buffer at 10^7 cells/ml and incubated in the dark with 5 μM FURA2/AM for 45 min at 37 °C. […] For each measurement of [Ca^2+]i mobilization, aliquots of cells were diluted to 0.825 × 10^6 cells/ml in HBSSHB, 1 mM CaCl2 and FURA2 fluorescence was recorded (2 ml aliquots of cells) at 37^ °C with gentle stirring with a Perkin Elmer-Cetus LS50-B spectrofluorometer at excitation wavelengths of 340 nm and 380 nm and emission wavelength of 510 nm, respectively.
Cells were stimulated with the TP agonist U46619 (1 μM) and changes in [Ca^2+]i mobilization were monitored as a function of time. To assess agonist-mediated homologous desensitization, cells (0.825 × 10^6 cells/ml; 2 ml per assay) were stimulated with 1 μM U46619 (Primary stimulation) or, as a control, with the vehicle for 4 min; thereafter, cells were collected by centrifugation (900×g, 5 min); were washed twice in 2 ml HBSSHB, 1 mM CaCl2; and finally resuspended in 2 ml HBSSHB,1 mM CaCl2 and were left to recover over various time intervals (ranging from 0 to 60 min); thereafter, cells re-stimulated with 1 μM U46619 (Secondary stimulation) and changes in [Ca^2+]i mobilization were monitored as a function of time. […]

T2 sequence (P21731 1-407 isoform P21731-2): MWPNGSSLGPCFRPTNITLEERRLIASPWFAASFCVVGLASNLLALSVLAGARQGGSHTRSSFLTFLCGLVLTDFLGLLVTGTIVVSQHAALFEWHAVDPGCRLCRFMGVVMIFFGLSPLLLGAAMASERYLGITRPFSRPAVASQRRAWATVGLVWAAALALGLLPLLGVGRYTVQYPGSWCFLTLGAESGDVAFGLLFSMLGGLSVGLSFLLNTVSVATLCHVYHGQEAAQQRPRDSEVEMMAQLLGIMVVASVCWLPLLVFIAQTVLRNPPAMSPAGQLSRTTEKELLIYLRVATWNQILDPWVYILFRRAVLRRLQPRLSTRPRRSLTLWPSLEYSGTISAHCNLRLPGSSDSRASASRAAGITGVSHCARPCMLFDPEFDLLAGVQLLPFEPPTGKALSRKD

Bmax (pmol/mg protein ± S.E.M.) (TPα^S331A) [pmol/mg protein]	Bmax (pmol/mg protein ± S.E.M.) (TPβ^WT) [pmol/mg protein]	Δ[Ca2+]i, U46619-induced (TPα^Δ336; primary 1 μM U46619 4 min) [nM]	Δ[Ca2+]i, U46619-induced (TPα^Δ336; secondary 1 μM U46619 at 15 min) [nM]	secondary U46619 [Ca2+]i response relative to primary response (TPα^Δ336; TPα^Δ336) [%]	Structure (SMILES)
4.00 ± 0.04	3.64 ± 0.03				O=C(O)CCC/C=C\C[C@@H]1[C@H](CNNC(=O)Nc2ccccc2)[C@H]2CC[C@@H]1O2 [SQ29,548]
		240 ± 14	50 ± 3.4	20	CCCCC[C@H](O)/C=C/[C@@H]1[C@@H](C/C=C\CCCC(=O)O)[C@H]2CO[C@@H]1C2 [U46619]
